“Also recorded” adds a separate entry of the source.
How the values were obtained:
[1] = tested on: polyrA; experiment: Melting of duplexes with polyrA (UV spectrophotometry, melting temperature); type: binding; details: for Tm: Table 7, duplex with poly rA, 3 μM; for thermal stability with complementary RNA (in words): complementary RNA sequences; for Melting temperature (Tm) / hypochromicity: Table 4, 3 μM of each oligomer; for Melting temperature (Tm): 10 mM sodium cacodylate, pH 7
Excerpt: (§1) UV spectrophotometry makes it possible to study the nucleic acids and to detect the formation of duplex, the melting temperature being one of the characteristics of a duplex. The stacking and pairing of the bases of the nucleic acids are accompanied by a decrease in the UV absorbtion (hypochromicity). […] The point of inflection of the curve, of sygmoidal shape, of the variation of the absorbance as as function of temperature is called melting temperature or Tm and corresponds to the co-existence of separate strands and paired strands in a 50/50 ratio.
(§2) Analysis of the melting curves for the β-4'-thiooligoribonucleotide/β-oligodeoxyribonucleotide and β-4'-thiooligoribonucleotide/β-oligoribonucleotide duplexes will make it possible to define the thermal stability of such duplexes by the measurement of the melting temperature. These hybridization experiments are carried out preserving a 1/1 stoichiometry between the two complementary strands, in the presence of a 1M NaCl, 10 mM sodium cacodylate buffer. A high NaCl concentration indeed favors the pairings by solvating the negative charges around the phosphorus atoms of the two oligonucleotides. We therefore carried out these hybridization experiments in a 0.1M NaCl, 10 mM sodium cacodylate buffer.
(§3) In order to carry out the hybridization experiment, it is necessary to know the concentration of each oligomer in order to preserve the 1:1 stoichiometry between the two complementary strands. According to the BEER-LAMBERT law A=ε1c, the absorbances of the oligomers were measured at 80° C. in order to remove the phenomenon of stacking of the bases creating a disturbance in the hyperchromicity due to the existence of tertiary structures.
(§4) The hybridization experiments were carried out with a UVIKON 810 spectrophotometer (KONTRON), coupled to an IBM-compatible microcomputer. […] The UV cuvettes are made from quartz of 1 cm in length and a continous circulation of nitrogen is used for temperatures of less than 20° C. […] This mixture is heated at 80° C. for 1 hour, and then cooled to -20° C. according to a temperature gradient of 0.5° C. per minute. The absorbance and temperature values are collected every 30 seconds.
(§5) The same experiment is carried out using a sufficient quantity for 1000 μl of 0.1M NaCl, 10 mM sodium cacodylate hybridization buffer adjusted to pH 7 in order to evaluate the thermal stability of the duplex in this buffer which favors the pairings less.
(§6) The hybridization experiments were carried out preserving the 1/1 stoichiometry between the two complementary strands in the presence of a 1M NaCl, 10 mM sodium cacodylate buffer. A high NaCl concentration indeed favors the pairings by solvating the negative charges around the phosphorus atoms of the two oligonucleotides. We carried out these hybridization experiments in another buffer 0.1M NaCl, 10 mM sodium cacodylate.
(§7) In order to carry out the hybridization experiments, it is necessary to know the concentration of each oligomer in order to preserve the 1:1 stoichiometry between the two complementary strands. According to the BEER-LAMBERT law A=ε1c, the absorbances of the oligomers were measured at 80° C. in order to remove the phenomenon of stacking of the bases creating a disturbance in the hyperchromicity due to the existence of tertiary structures.
as §4

[2] = tested on: βdC2 A12 C2 (SEQ ID NO: 4); experiment: Melting of duplexes with βdC2 A12 C2 (UV spectrophotometry, melting temperature); type: binding; details: for Tm: Table 7, duplex with d(C2 A12 C2), 3 μM; for Melting temperature (Tm): 10 mM sodium cacodylate, pH 7
Excerpt: as §1, §2, §3, §4, §5, §6, §7, §4

[3] = tested on: calf spleen phosphodiesterase; experiment: Enzymatic degradation of the dodecamers by calf spleen phosphodiesterase; type: in vitro ADME; details: for Degradation in 0 min / Degradation in 25 min: Table 8
Excerpt: Study of the enzymatic degradation of the dodecamer β(SrT)dT11 (SEQ ID NO: 3) by calf spleen phosphodiesterase. Calf spleen phosphodiesterase is an exonuclease which degrades the oligomers from their free 5' ends, thus liberating nucleotides 3' phosphate.
This study will allow us to evaluate the resistance to enzymatic degradation induced by the presence in the 5' position of a 4'-thionucleotide unit in the oligomer β(SrT)dT11 (SEQ ID NO: 3) compared to the enzymatic degradation of the oxygenated natural homolog βdT12 (SEQ ID NO: 3). The comparative stability of the two dodecamers βdT12 (SEQ ID NO: 3) and β(SrT)dT11 (SEQ ID NO: 3) towards hydrolysis by calf spleen phosphodiesterase is presented in Table 8.
The variation over time of the enzymatic degradation of the two dodecamers was monitored by HPLC. We were able to plot the curve for enzymatic digestion of β(SrT)dT11 (SEQ ID NO: 3) as a function of time: A=A0 e^-kt (FIG. 2, A) where:
A0 is the initial surface area of the 12-mer
A is the surface area of the 12-met at the instant t
k is the first order rate constant for the degradation
An oligonucleotide solution (20 μl, 3 absorbance units at 260 nm) is diluted in 0.125M ammmonium acetate buffer (pH 7.0), 2.5 mM EDTA and 0.065% Tween 80 (80 μL). A commercial solution of calf spleen phosphodisesterase (2 μl, final concentration 0.008 unit/ml) is added and the mixture is incubated at 37° C. At determined times, aliquot fractions are collected (5 μl), heated at 100° C. for one minute and analyzed by HPLC.
The analyses were carried out on an PVDI (Polyvinylimidazole SFCC-Shandon) column protected by a precolumn and a prefilter. The elution is carried out based on a linear gradient over 20 minutes from 0.1M to 0.4M KCl in 20 mM KH2 PO4 at pH 6 containing 20% acetonitrile. The flow rate was fixed at 1 ml/min and the UV detection at 260 nm.

[4] = tested on: 5'-exonuclease calf spleen phosphodiesterase; experiment: Enzymatic degradation of hexamers by 5'-exonuclease calf spleen phosphodiesterase; type: in vitro ADME
Excerpt: (§8) Study of the substrate-type activities of hexamers 4'-SrU6, 4'-SrU6 -3'n-prOH compared with the substrate characteristics of the hexamers βrU6 and αrU6 in relation to various purified nucleases.
Calf spleen phosphodiesterase (CSP) is a 5'-exonuclease which degrades the oligonucleotides from their 5' end and liberates nucleotides 3'-phosphates.
(§9) These four enzymes were obtained from Boehringer Mannheim.
(§10) Generally, one optical density unit at 260 nm of each hexamer is brought into contact with a certain concentration of the enzyme considered and is then diluted in a sufficient quantity for 1000 μl of enzymatic digestion buffer.
(§11) Various digestion buffers were used depending on the nature of the enzyme (Table 9).
(§12) The stock sample is divided into 10 fractions of 100 μl before being frozen at -18° C.
(§13) One aliquot fraction of 100 μl is collected and incubated in a dry oven thermostated at 37° C. for a time t and is then analyzed by analytical HPLC.
(§14) The study of the surface area of the signal corresponding to the hexamer makes it possible to measure a kinetics of degradation whose half-life period is calculated (Table 10).

[5] = tested on: 3'-exonuclease snake venom phosphodiesterase; type: in vitro ADME
Excerpt: as §8
Snake venom phosphodiesterase (VSP) is a 3'-exonuclease-3' which liberates nucleotides 5'-phosphate after degrading the oligomer by its 3' end.
as §9, §10, §11, §12, §13, §14

[6] = tested on: Endonuclease S1; experiment: Enzymatic degradation of hexamers by endonuclease S1; type: in vitro ADME
Excerpt: as §8
Endonuclease S1, specific for the single DNA strand hydrolyzes the phosphodiester bonds in a random manner.
as §9, §10, §11, §12, §13, §14

[7] = tested on: Ribonuclease A; experiment: Enzymatic degradation of hexamers by ribonuclease A; type: in vitro ADME
Description: as §8
Ribobuclease A degrades an oligoribonucleotide after the pyrimidine residues.
as §9, §10, §11, §12, §13, §14

[8] = tested on: βSrU12 (SEQ ID NO: 5); experiment: Self-hybridization of the oligomer βSrU12; type: binding; details: 1M and 0.1M NaCl
Description: For that, an experiment for self-hybridization of the dodecamer βSrU12 (SEQ ID NO: 5) was carried out at two NaCl concentrations (1M and 0.1M). […] No point of inflection can be visualized on such a straight line.
The hybridization experiments were carried out with a UVIKON 810 spectrophotometer (KONTRON), coupled to an IBM-compatible microcomputer. The temperature is controlled by a HUBER PD 415 temperature programmer connected to a thermostated bath (HUMER […]). The UV cuvettes are made from quartz of 1 cm in length and a continous circulation of nitrogen is used for temperatures of less than 20° C. Before the experiment, 3 μM (Examples 1 to V) or 10 μM (Examples VI and VII) of complementary oligomers are brought into contact in a sufficient quantity for 1000 μl of 1M NaCl and 10 mM sodium cacodylate buffer, adjusted to pH 7 (Examples I to VII). This mixture is heated at 80° C. for 1 hour, and then cooled to -20° C. according to a temperature gradient of 0.5° C. per minute. The absorbance and temperature values are collected every 30 seconds.
as §5
Concentration of βrU12 (SEQ ID NO: 5)=0.351 mM […]

[9] = Table 6, 1M NaCl, 10 μM of each oligomer
[10] = Table 5, 0.1M NaCl, 3 μM of each oligomer
[11] = Table 5, 1M NaCl, 3 μM of each oligomer

## 4'-SrU3 -dT6 -4'-SrU3 /P3 PS5 P3 (UUUTTTTTTUUU; 4'-thioribouridine units; phosphorothioate bonds) [compound 5, mixed dodecamer containing both phosphodiester and phosphorothioate bonds]
[1]; 0.1 M NaCl
  Tm: 24 °C
[1]; 1 M NaCl
  Tm: 36 °C
[1]
  thermal stability with complementary RNA (in words): good thermal stability
[1]; with poly rA and d(C2 A12 C2), versus phosphodiester oligomer 4
  decrease in the Tm value per phosphorothioate linkage: about 2 °C
[2]; 0.1 M NaCl
  Tm: 3 °C
[2]; 1 M NaCl
  Tm: 19 °C

## βdT12: oxygenated natural homolog βdT12 [reference compound]
[2]; [9]
  Melting temperature (Tm): 45 °C
  hypochromicity: 20.5%
[3]; FIG. 2, 37° C., 0.008 unit/ml
  half-life period (t1/2): 0.017 h
[3]; 37° C., 0.008 unit/ml
  Degradation in 0 min: 0%
  Degradation in 25 min: 93%

## 4'-Sr-(U-U-U-U-U-U) [βSrU6]
[4]; CSP
  enzymatic resistance compared with βrU6 (in words): high enzymatic resistance
[4]; Table 10, CSP 13 × 10^-3 units/ml, pH 7, 37° C.
  Half-life period: 65 h
[5]; Table 10, VSP 6 × 10^-4 units/ml, pH 9.4, 37° C.
  Half-life period: 1.27 h
[5]; VSP
  enzymatic resistance compared with βrU6 (in words): high enzymatic resistance
[6]; S1
  enzymatic resistance compared with βrU6 (in words): high enzymatic resistance
[6]; Table 10, S1 20 units/ml, pH 4.7, 37° C.
  Half-life period: 15.5 h
[7]; RNase-A
  enzymatic resistance compared with βrU6 (in words): high enzymatic resistance
[7]; Table 10, RNAse A 2 × 10^-2 units/ml, pH 7.4, 37° C.
  Half-life period: 11.2 h

## β(SrT)dT11: dodecamer with a 4'-thionucleotide unit in the 5' position (TTTTTTTTTTTT; 5' 4'-thionucleotide unit)
[3]; FIG. 2, 37° C., 0.008 unit/ml
  first order rate constant for the degradation (k): 0.016 min⁻¹
  half-life period (t1/2): 0.717 h
[3]; 37° C., 0.008 unit/ml
  Degradation in 0 min: 0%
  Degradation in 25 min: 23%
[3]; degradation by the 5' end
  half-life period compared with that of βSrU12 (in words): substantially greater

## βSrU12: homododecamer 4'-thio-β-D-ribonucleotide (βrSU12)
[1]; 0.1M NaCl
  Melting temperature (Tm): 33 °C
  hypochromicity: 25%
[1]; 1M NaCl
  Melting temperature (Tm): 46 °C
  hypochromicity: 25%
[1]
  thermal stability with complementary RNA (in words): good thermal stability
[2]; [10]
  Melting temperature (Tm): 5 °C
  hypochromicity: 5.6%
[2]; [11]
  Melting temperature (Tm): 27 °C
  hypochromicity: 9.3%
[8]
  self-hybridization (in words): does not self-pair; also recorded: no self-hybridization

## βdT5 (SrT)dT6: dodecamer βdT5 (SrT) dT6
[2]; 1M NaCl, 10 μM, versus βdT12/βdC2 A12 C2
  difference in Tm (modified duplex lower than natural duplex): 5 °C
[2]; [9]
  Melting temperature (Tm): 40 °C
  hypochromicity: 18%

## 4'-SrU3 -dT6 -4'-SrU3 /P11 (UUUTTTTTTUUU; 4'-thioribouridine units) [compound 4, mixed dodecamer with phosphodiester bonds]
[1]; 0.1 M NaCl
  Tm: 32 °C
[1]; 1 M NaCl
  Tm: 45 °C
[1]
  thermal stability with complementary RNA (in words): good thermal stability
[1]; with poly rA
  Tm values compared with those of βrSU12 (in words): equivalent
[2]; 0.1 M NaCl
  Tm: 10 °C
[2]; 1 M NaCl
  Tm: 31 °C
[2]; with d(C2 A12 C2)
  Tm values compared with those of βrSU12 (in words): equivalent

From patent US5639873A, “Oligothionucleotides” (Centre National de la Recherche Scientifique (CNRS), priority 1992, dated 1997)
